Measurements reported in the supplement of paper PMC10307832.

Columns and labels:
Assay in all cases: relative viability (nuclei count vs DMSO), 5 days (fraction); higher = more cells survive
[1] = system: HCC-366
How it was run: (§1)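 Nuclei were stained with Hoechst during a one-step fixation (final 0.05% Triton X-100, 1% formaldehyde, 1 ug/ml Hoechst) carried out 5 days after dosing, then counted on 4× images. The cells, lung cancer lines in 1536-well plates, had been dosed by pin tool the day after seeding with one drug alone or a fixed anchor-drug dose plus five library-drug doses (not always all listed) in √10 steps. Relative viability is the nuclei count in treated wells divided by that in vehicle wells, and each value is the median of duplicate plates.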

[2] = system: LU99A
How it was run: as §1

[3] = system: ABC-1
How it was run: as §1

[4] = system: NCI-H2228
How it was run: as §1

[5] = system: HCC-78
How it was run: as §1

[6] = system: ChaGo-K-1
How it was run: as §1

[7] = system: NCI-H1651
How it was run: as §1

[8] = system: NCI-H2170
How it was run: as §1

[9] = system: RERF-LC-KJ
How it was run: as §1

[10] = system: LOU-NH91
How it was run: as §1

[11] = system: NCI-H1755
How it was run: as §1

[12] = system: LC-2-ad
How it was run: as §1

[13] = system: PC-3 [JPC-3]
How it was run: as §1

[14] = system: CAL-12T
How it was run: as §1

[15] = system: NCI-H1734
How it was run: as §1

[16] = system: NCI-H1944
How it was run: as §1

[17] = system: NCI-H1395
How it was run: as §1

[18] = system: NCI-H1793
How it was run: as §1

[19] = system: NCI-H460
How it was run: as §1

[20] = system: NCI-H2087
How it was run: as §1

[21] = system: NCI-H2405
How it was run: as §1

[22] = system: UMC-11
How it was run: as §1

[23] = system: NCI-H3122
How it was run: as §1

Compound `NC(=O)Nc1cc(-c2cccc(F)c2)sc1C(=O)N[C@H]1CCCNC1` [AZD7762] + COc1cccc2cc(-c3nc([C@H]4CC[C@H](C(=O)O)CC4)n4ncnc(N)c34)[nH]c12 [OSI-027] (partner 0.5 µM) has a relative viability ([1]; first compound 0.01 µM) of 1.02, a relative viability ([1]; first compound 0.03162 µM) of 0.896 and a relative viability ([1]; first compound 0.1 µM) of 0.985. It also gave a relative viability ([1]; first compound 0.3162 µM) of 0.869, a relative viability ([1]; first compound 1 µM) of 0.122 and a relative viability ([2]; first compound 0.01 µM) of 0.323. For the same compound, the relative viability ([2]; first compound 0.03162 µM) was 0.365, the relative viability ([2]; first compound 0.1 µM) was 0.352 and the relative viability ([2]; first compound 0.3162 µM) was 0.326. It also gave a relative viability ([2]; first compound 1 µM) of 0.217, a relative viability ([3]; first compound 0.01 µM) of 0.469 and a relative viability ([3]; first compound 0.03162 µM) of 0.517. It also gave a relative viability ([3]; first compound 0.1 µM) of 0.414, a relative viability ([3]; first compound 0.3162 µM) of 0.349 and a relative viability ([3]; first compound 1 µM) of 0.161. The relative viability ([4]; first compound 0.01 µM) was 0.513, the relative viability ([4]; first compound 0.03162 µM) was 0.847 and the relative viability ([4]; first compound 0.1 µM) was 0.492. It also gave a relative viability ([4]; first compound 0.3162 µM) of 0.302, a relative viability ([4]; first compound 1 µM) of 0.152 and a relative viability ([5]; first compound 0.01 µM) of 0.43. The relative viability ([5]; first compound 0.03162 µM) was 0.452, the relative viability ([5]; first compound 0.1 µM) was 0.453 and the relative viability ([5]; first compound 0.3162 µM) was 0.357. The relative viability ([5]; first compound 1 µM) was 0.346, the relative viability ([6]; first compound 0.01 µM) was 0.622 and the relative viability ([6]; first compound 0.03162 µM) was 0.631. For the same compound, the relative viability ([6]; first compound 0.1 µM) was 0.56, the relative viability ([6]; first compound 0.3162 µM) was 0.643 and the relative viability ([6]; first compound 1 µM) was 0.554. For the same compound, the relative viability ([7]; first compound 0.01 µM) was 0.76, the relative viability ([7]; first compound 0.03162 µM) was 0.637 and the relative viability ([7]; first compound 0.1 µM) was 0.653. The relative viability ([7]; first compound 0.3162 µM) was 0.637, the relative viability ([7]; first compound 1 µM) was 0.193 and the relative viability ([8]; first compound 0.01 µM) was 0.637. It also gave a relative viability ([8]; first compound 0.03162 µM) of 0.734, a relative viability ([8]; first compound 0.1 µM) of 0.807 and a relative viability ([8]; first compound 0.3162 µM) of 0.8. The relative viability ([8]; first compound 1 µM) was 0.707, the relative viability ([9]; first compound 0.01 µM) was 0.587 and the relative viability ([9]; first compound 0.03162 µM) was 0.668. For the same compound, the relative viability ([9]; first compound 0.1 µM) was 0.77, the relative viability ([9]; first compound 0.3162 µM) was 0.666 and the relative viability ([9]; first compound 1 µM) was 0.499. For the same compound, the relative viability ([10]; first compound 0.01 µM) was 0.735, the relative viability ([10]; first compound 0.03162 µM) was 0.749 and the relative viability ([10]; first compound 0.1 µM) was 0.692. It also gave a relative viability ([10]; first compound 0.3162 µM) of 0.638, a relative viability ([10]; first compound 1 µM) of 0.554 and a relative viability ([11]; first compound 0.01 µM) of 0.826. For the same compound, the relative viability ([11]; first compound 0.03162 µM) was 0.845, the relative viability ([11]; first compound 0.1 µM) was 0.722 and the relative viability ([11]; first compound 0.3162 µM) was 0.712. The relative viability ([11]; first compound 1 µM) was 0.44, the relative viability ([12]; first compound 0.01 µM) was 0.911 and the relative viability ([12]; first compound 0.03162 µM) was 1. For the same compound, the relative viability ([12]; first compound 0.1 µM) was 0.816, the relative viability ([12]; first compound 0.3162 µM) was 0.8 and the relative viability ([12]; first compound 1 µM) was 0.543. The relative viability ([13]; first compound 0.01 µM) was 0.714, the relative viability ([13]; first compound 0.03162 µM) was 0.832 and the relative viability ([13]; first compound 0.1 µM) was 0.858. It also gave a relative viability ([13]; first compound 0.3162 µM) of 0.751, a relative viability ([13]; first compound 1 µM) of 0.684 and a relative viability ([14]; first compound 0.01 µM) of 0.676. It also gave a relative viability ([14]; first compound 0.03162 µM) of 0.73, a relative viability ([14]; first compound 0.1 µM) of 0.768 and a relative viability ([14]; first compound 0.3162 µM) of 0.487. For the same compound, the relative viability ([14]; first compound 1 µM) was 0.124, the relative viability ([15]; first compound 0.01 µM) was 0.638 and the relative viability ([15]; first compound 0.03162 µM) was 0.704. For the same compound, the relative viability ([15]; first compound 0.1 µM) was 0.642, the relative viability ([15]; first compound 0.3162 µM) was 0.374 and the relative viability ([15]; first compound 1 µM) was 0.238. For the same compound, the relative viability ([16]; first compound 0.01 µM) was 0.396, the relative viability ([16]; first compound 0.03162 µM) was 0.467 and the relative viability ([16]; first compound 0.1 µM) was 0.53. For the same compound, the relative viability ([16]; first compound 0.3162 µM) was 0.525, the relative viability ([16]; first compound 1 µM) was 0.299 and the relative viability ([17]; first compound 0.01 µM) was 0.727. For the same compound, the relative viability ([17]; first compound 0.03162 µM) was 0.74, the relative viability ([17]; first compound 0.1 µM) was 0.708 and the relative viability ([17]; first compound 0.3162 µM) was 0.458. It also gave a relative viability ([17]; first compound 1 µM) of 0.363, a relative viability ([18]; first compound 0.01 µM) of 0.265 and a relative viability ([18]; first compound 0.03162 µM) of 0.268. The relative viability ([18]; first compound 0.1 µM) was 0.308, the relative viability ([18]; first compound 0.3162 µM) was 0.299 and the relative viability ([18]; first compound 1 µM) was 0.25. For the same compound, the relative viability ([19]; first compound 0.01 µM) was 0.861, the relative viability ([19]; first compound 0.03162 µM) was 0.751 and the relative viability ([19]; first compound 0.1 µM) was 0.649. It also gave a relative viability ([19]; first compound 0.3162 µM) of 0.463, a relative viability ([19]; first compound 1 µM) of 0.0347 and a relative viability ([20]; first compound 0.01 µM) of 0.474. The relative viability ([20]; first compound 0.03162 µM) was 0.653, the relative viability ([20]; first compound 0.1 µM) was 0.681 and the relative viability ([20]; first compound 0.3162 µM) was 0.883. For the same compound, the relative viability ([20]; first compound 1 µM) was 0.779, the relative viability ([21]; first compound 0.01 µM) was 0.608 and the relative viability ([21]; first compound 0.03162 µM) was 0.676. The relative viability ([21]; first compound 0.1 µM) was 0.623, the relative viability ([21]; first compound 0.3162 µM) was 0.664 and the relative viability ([21]; first compound 1 µM) was 0.455. The relative viability ([22]; first compound 0.01 µM) was 0.484, the relative viability ([22]; first compound 0.03162 µM) was 0.442 and the relative viability ([22]; first compound 0.1 µM) was 0.43. For the same compound, the relative viability ([22]; first compound 0.3162 µM) was 0.33, the relative viability ([22]; first compound 1 µM) was 0.241 and the relative viability ([23]; first compound 0.01 µM) was 1.03. For the same compound, the relative viability ([23]; first compound 0.03162 µM) was 1.1, the relative viability ([23]; first compound 0.1 µM) was 0.995 and the relative viability ([23]; first compound 0.3162 µM) was 0.473. The relative viability ([23]; first compound 1 µM) was 0.259.
